Tests used:
[1] = Partition coefficient based on the octanol extraction method (Example I-29); assay type: physicochemical; conditions: octanol / 10 mmol/L phosphate buffer (pH 7.4), Table I-9
Experimental: To 2 mL of octanol, 10 μL each of the prepared sample solutions was added, and 2 mL of a 10 mmol/L phosphate buffer (pH 7.4) was further added, followed by stirring for 30 seconds.

[2] = Partition coefficient based on the octanol extraction method; assay type: physicochemical; conditions: octanol / 10 mmol/L phosphate buffer (pH 7.4)
Experimental: After the mixture was centrifuged with a low-speed centrifuge (2000 rpm×60 min.), the octanol layer and the water layer were sampled each in an amount of 1 mL, and subjected to measurement of radioactivity count with an autowell gamma system (manufactured by Aloka, Type: ARC-301B). Using the obtained radioactivity count, log Poctanol was calculated in accordance with the equation (1-2).

[3] = Transferability into brain and clearance (2); assay type: in vivo, male Wistar rats; conditions: rats, intravenous injection, Table 1-10
Experimental: 0.05 mL each of these solutions was injected under thiopental anesthesia into the tail vein of respective Wistar rats (7-week old). The rats were sacrificed by bleeding from abdominal artery, and brains were removed and subjected to measurement of mass of brains and further subjected to measurement of radioactivity (hereinafter referred to as A in this Example) with a single channel analyzer (detector type: SP-20 manufactured by OHYO KOKEN KOGYO Co., Ltd.) 2, 5, 30 and 60 minutes after the injection. Also, radioactivity (hereinafter referred to as B in this Example) of the rest of the whole body was measured in the same manner as above. Using these measurement results, radioactive distribution per unit weight of brain (% ID/g) at the respective time points were calculated in accordance with the following formula (1-7).
Three animals were used for experiment at the respective time points.

[4] = Transferability into brain and clearance; assay type: in vivo, male Wistar rats; conditions: rats, intravenous injection
Excerpt: Three animals were used for Experiment I-20 and Comparative Experiment I-9, and two animals were used for Experiment I-21 at the respective time points.

[5] = Unspecific accumulation at sites without amyloid (applicant's studies); conditions: results of our studies
[6] = Partition coefficient based on HPLC; assay type: physicochemical; conditions: mobile phase 50 mM triethylamine phosphate (pH 7.2)/acetonitrile=40/60
Experimental: Measurements of partition coefficient based on HPLC The partition coefficient by HPLC (hereinafter referred to as log PHPLC) was measured by the following method.
First, compounds for evaluation shown in Table 1-5 were dissolved at a concentration of 1 mg/mL in methanol containing 10% dimethylsulfoxide to prepare sample solutions. One μL of the sample solution was subjected to HPLC analysis under the following conditions to determine the elution time (t0) of the solvent and the elution time (tR) of each compound.
Column: Prodigy ODS (3) (product name; manufactured by phenomenex; size: 4.6×250 mm)
Mobile phase: a mixed solution of 50 mM triethylamine phosphate (pH 7.2)/acetonitrile=40/60
Detector: ultraviolet visible absorptiometer (detection wavelength: 282 nm)
Using the obtained t0 and tR, the retention factor (hereinafter referred to as K′HPLC value) of each compound for evaluation was determined according to the following calculation formula (1-3).
After the individual solutions were stirred for 30 seconds, the solutions were centrifuged at 2,000 rpm for 60 minutes. 1 mL each of the octanol phase and the water phase was fractionated, and the radioactivity was measured by an autowell gamma system (manufactured by Aloka Co., Ltd.: Type ARC-301B). Based on the obtained radioactivity, log Poctanol values were calculated according to the above equation (1-2). […]

[7] = International Publication No. WO03/106439; cited from earlier work
[8] = test system: Chinese Hamster fibroblast cell line (CHL/IU cell); test: Chromosome aberration test; assay type: cell-based; conditions: with or without S9 short-term treatment and 24-hour continuous treatment; 0.15-1.2 mg/mL
Experimental: In order to examine whether Compound I-4 can induce chromosome aberration, the chromosome aberration test was conducted using Chinese Hamster fibroblast cell line (CHL/IU cell) in a culture system with or without addition of S9 by short-term treatment process and in a 24-hour culture system by continuous treatment process. The addition amount of a sample to be tested was set to 1.2, 0.6, 0.3, and 0.15 mg/mL for all the respective culture systems.

[9] = molecular target: T1, amyloid (aggregated Aβ1-40) (Homo sapiens, UniProt P05067); test: Measurement of affinity with amyloid: inhibition of [125I]3′-I-BTA-0 binding; conditions: [125I]3′-I-BTA-0 400 pmol/L, amyloid 1 μmol/L, 22° C., 3 hours
T1 construct: Aβ1-40 (Peptide Institute, INC.) was dissolved in phosphate buffer (pH 7.4); purchased Peptide Institute, INC
Experimental: Affinity of the present compounds with amyloid was examined by the following in vitro binding tests.
(1) Aβ1-40 (Peptide Institute, INC.) was dissolved in phosphate buffer (pH 7.4) and shaken at 37° C. for 62-72 hours, to obtain a 1 mg/mL suspension of aggregated Aβ (hereinafter referred to as amyloid suspension in this Example).
(3) According to the method described in a literature (Wang, Y., et al., J. Labeled Compounds Radiopharmaceut. 44, 5239 (2001)), [^125I]2-(3′-iodo-4′-aminophenyl)benzothiazole (hereinafter referred to as […]) was prepared from a labeling precursor 2-(4′-aminophenyl)benzothiazole, and dissolved in ethanol.
(5) Samples in which [^125I]3′-I-BTA-0, each compound for evaluation and amyloid were dissolved in a 0.1% bovine serum albumin-containing phosphate buffer (pH 7.4) at final concentrations shown in Table 1-2 were prepared. The resulting samples were filled in each well (about 0.3 mL in volume) of a 96-well microplate.
(6) The microplate filled with the sample solutions was shaken at a given rate (400 rpm) at 22° C. for 3 hours. Then, each sample solution was filtered through a glass fiber filter (trade name: Mulutiscreen™-FC, manufactured by Millipore), to separate the [^125I]3′-I-BTA-0 attached to amyloid from the free [^125I]3′-I-BTA-0.
(7) The glass fiber filter used for the filtration of each sample solution was washed with a 0.1% bovine serum albumin-containing phosphate buffer (pH 7.4) (0.5 mL×5), and radioactivity of the glass fiber filter was measured with an autowell gamma system (manufactured by Aloka, Type: ARC-301B).
(8) Separately, a solution of containing 15 μmol/L of 6-Me-BTA-2, […] of [^125I]3′-I-BTA-0 and 1 μmol/L of Aβ1-40 were prepared and subjected to the same procedures as described above in (6) and (7) to measure a radioactivity level. The measured radioactivity level was defined as the background radioactivity level, and used in the calculation of the inhibition ratio (hereinafter referred to as BG).
(9) Using the radioactivity levels measured above in (7) and (8), the inhibition ratio was determined by the following formula (1-1).
A graph in which values converted by probit transformation from the obtained inhibition ratios were plotted relative to logarithms of concentrations of compounds for evaluation was prepared to obtain an approximate straight line by the least square method. Using the line, the concentration of each compound for evaluation was determined, at which the radioactivity level is half of the level of the sample free from each compound for evaluation, and was defined as a 50% inhibition concentration of each compound (hereinafter referred to as IC50% value). Using the value as an indicator, affinity of each compound for evaluation with amyloid (aggregated Aβ1-40) was evaluated.

[10] = test system: bone marrow cells of Crlj:CD1 (ICR) male mouse; test: Micronucleus test; assay type: in vivo; conditions: single oral administration 250-2000 mg/kg, 24 and 48 hours
Experimental: In order to study mutagenicity (in vivo) of Compound I-4, induction of micronucleated polychromatic erythrocyte (hereinafter referred to as MNPCE) was examined using bone marrow cells of Crlj:CD1 (ICR) male mouse.
0 mg/kg (negative control group), 250, 500, 1000 and 2000 mg/kg (test sample group) were set as doses for the test. Mice were sacrificed 24 and 48 hours after single oral administration, and bone marrow smear was prepared and observed. Further, a single dose of MMC at 2 mg/kg was abdominally administrated in positive control group, mice were sacrificed 24 hours after the administration, and then bone marrow smear was prepared and observed.
As statistical analysis, significance tests were conducted by Wilcoxon rank sum test for the appearance frequency of MNPCE and the ratio of polychromatic erythrocyte (hereinafter referred to as PCE) to the total red blood cell (hereinafter referred to as RBC) in each administration group concerning the test sample and positive control groups relative to the negative control group and concerning these groups relative to each other where the significance level was set to less than 5% and less than 1%, respectively.

[11] = test system: Salmonella typhimurium TA100; test: Reverse mutation test (Ames test), TA100; assay type: cell-based
Experimental: (§1) In order to examine mutagenicity of Compound I-1, I-2, I-4 and I-5, reverse mutation test using Salmonella typhimurium TA98 and TA100 (hereinafter referred to as Ames test) was conducted.
(§2) The test was conducted without addition of S9mix and with addition of S9mix. Dimethylsulfoxide was used as a negative control. A positive control was 2-(2-furyl)-3-(5-nitro-2-furyl)acrylamide in case S9mix was not added, and 2-aminoanthracene in case S9mix was added.
(§3) The amount of each sample to be added to the test plate was 7 dosages (geometric ratio 4) with the maximum dose being 1250 μg/plate for Compounds I-1 and I-5, and 7 dosages (geometric ratio 3) with the maximum dose being 5000 μg/plate for Compounds I-2 and I-4. After a sample to be examined and a strain (TA98 or TA100), or a sample to be examined, S9mix and the strain were mixed together, the mixture was multilayered using soft agar on a medium of a test plate, and then incubated at 37° C. for 48 hours.

[12] = test system: Salmonella typhimurium TA98 and TA100; test: Reverse mutation test (Ames test), overall judgment; assay type: cell-based; conditions: TA98 and TA100, with and without S9mix
Experimental: as §1, §2, §3
The numbers of reverse mutation colonies of the respective strains in the group treated with Compounds I-1, I-2, I-4 and I-5 were less than two times the number in the group treated with the negative control, regardless of addition of S9mix and the addition amount of a sample to be examined. From the aforementioned results, it is judged that Compounds I-1, I-2, I-4 and I-5 are negative in the Ames test and have no mutagenicity.

[13] = test system: Salmonella typhimurium TA98; test: Reverse mutation test (Ames test), TA98; assay type: cell-based
Experimental: as §1, §2, §3

T1 sequence (P05067 672-711 limits assumed): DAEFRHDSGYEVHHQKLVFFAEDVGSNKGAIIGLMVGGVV

## CN(C)c1ccc(-c2cn3cc([123I])ccc3n2)cc1 [[^123I]-IMPY, reference compound]
[1]
  logPoctanol value: 2.1
[2]
  logPoctanol value: 2.1
[3]; 2 min.
  Radioactive distribution per unit weight in brain, After 2 min.: 1.19 % ID/g
[3]; 5 min.
  Radioactive distribution per unit weight in brain, After 5 min.: 0.97 % ID/g
[3]; 30 min.
  Radioactive distribution per unit weight in brain, After 30 min.: 0.23 % ID/g
[3]; 60 min.
  Radioactive distribution per unit weight in brain, After 60 min.: 0.09 % ID/g
[4]; 2 min.
  Radioactive distribution per unit weight in brain, After 2 min.: 1.02 % ID/g
[4]; 5 min.
  Radioactive distribution per unit weight in brain, After 5 min.: 0.99 % ID/g
[4]; 30 min.
  Radioactive distribution per unit weight in brain, After 30 min.: 0.20 % ID/g
[4]; 60 min.
  Radioactive distribution per unit weight in brain, After 60 min.: 0.08 % ID/g

## CN(C)c1ccc(-c2cn3cc(I)ccc3n2)cc1 [IMPY, 6-iodo-2-[4′-(N,N-dimethylamino)phenyl]imidazo[1,2-a]pyridine]
[5]
  unspecific accumulation on sites other than amyloid deposition: accumulates unspecifically on white matter or other sites where amyloid is not deposited
[6]
  logPHPLC value: 2.1
[7]
  reverse mutation test: positive

## FCCOc1ccc(-c2cn3cc(I)ccc3n2)cc1 [Compound I-4, 2-[4′-(2″-fluoroethoxy)phenyl]-6-iodoimidazo[1,2-a]pyridine]
[8]
  capability of inducing chromosome aberration: negative
[9]
  IC50: 900 pM
[10]
  mutagenicity (in vivo), induction of micronucleus: negative
[11]; with S9mix
  Mutagenicity, TA100, With addition of S9mix: Negative
[11]; without S9mix
  Mutagenicity, TA100, Without addition of S9mix: Negative
[12]
  Ames test judgment: negative
[13]; with S9mix
  Mutagenicity, TA98, With addition of S9mix: Negative
[13]; without S9mix
  Mutagenicity, TA98, Without addition of S9mix: Negative
